According to ChEMBL document CHEMBL5532696, “Discovery of new tricyclic spiroindole derivatives as potent P-glycoprotein inhibitors for reversing multidrug resistance enabled by a synthetic methodology-based library” (RSC Med Chem, 2024):
Activity calls are given as the source filed them. No cut-off for these calls is given here.

What was measured:
[1] = tested on: Eca-109/VCR; assay: Antiproliferative activity against human Eca-109/VCR cells assessed as cell viability at 5 uM incubated for 48 hrs by CCK-8 assay (reference value: 100 +/- 1.8%); type: functional; conditions: read-out: Activity
[2] = tested on: Eca-109/VCR; assay: Reversal of vincristine resistance in human Eca-109/VCR cells assessed as reversal fold by measuring ratio of vincristine IC50 to vincristine IC50 in presence of test compound at 5 uM incubated for 48 hrs by CCK8 assay; type: functional
[3] = tested on: Eca-109/VCR; assay: Antiproliferative activity against human Eca-109/VCR cells assessed as reduction in cell viability at 10 uM incubated for 48 hrs by CCK-8 assay; type: functional, cell-based
[4] = tested on: Eca-109/VCR; assay: Inhibition of colony formation in human Eca-109/VCR cells at 0 to 2 uM incubated for 48 hrs by crystal violet staining based assay; type: functional, cell-based; conditions: dose 0-2 µM
[5] = tested on: Eca-109/VCR; assay: Inhibition of colony formation in human Eca-109/VCR cells assessed as reduction in number of colonies incubated for 48 hrs in presence of vincristine by crystal violet staining based assay; type: functional, cell-based; conditions: dose 0-2 µM
[6] = tested on: Eca-109/VCR; assay: Induction of apoptosis in human Eca-109/VCR cells assessed as viable cells at 1 uM incubated for 48 hrs by Annexin V-FITC/DAPI staining based flow cytometry analysis (reference value: 94.6 %); type: functional; conditions: read-out: Activity
[7] = tested on: Eca-109/VCR; assay: Induction of apoptosis in human Eca-109/VCR cells assessed as early apoptotic cells at 1 uM incubated for 48 hrs by Annexin V-FITC/DAPI staining based flow cytometry analysis (reference value: 0.97 %); type: functional
[8] = tested on: Eca-109/VCR; assay: Induction of apoptosis in human Eca-109/VCR cells assessed as late apoptotic cells at 1 uM incubated for 48 hrs by Annexin V-FITC/DAPI staining based flow cytometry analysis (reference value: 4.31 %); type: functional
[9] = tested on: Eca-109/VCR; assay: Induction of apoptosis in human Eca-109/VCR cells assessed as necrotic cells at 1 uM incubated for 48 hrs by Annexin V-FITC/DAPI staining based flow cytometry analysis (reference value: 0.073 %); type: functional
[10] = tested on: Eca-109/VCR; assay: Induction of apoptosis in human Eca-109/VCR cells assessed as viable cells at 5 uM incubated for 48 hrs by Annexin V-FITC/DAPI staining based flow cytometry analysis (reference value: 94.6 %); type: functional; conditions: read-out: Activity
[11] = tested on: Eca-109/VCR; assay: Induction of apoptosis in human Eca-109/VCR cells assessed as early apoptotic cells at 5 uM incubated for 48 hrs by Annexin V-FITC/DAPI staining based flow cytometry analysis (reference value: 0.97 %); type: functional
[12] = tested on: Eca-109/VCR; assay: Induction of apoptosis in human Eca-109/VCR cells assessed as late apoptotic cells at 5 uM incubated for 48 hrs by Annexin V-FITC/DAPI staining based flow cytometry analysis (reference value: 4.31 %); type: functional
[13] = tested on: Eca-109/VCR; assay: Induction of apoptosis in human Eca-109/VCR cells assessed as necrotic cells at 5 uM incubated for 48 hrs by Annexin V-FITC/DAPI staining based flow cytometry analysis (reference value: 0.073 %); type: functional
[14] = tested on: Eca-109/VCR; assay: Induction of apoptosis in human Eca-109/VCR cells assessed as viable cells at 1 uM incubated for 48 hrs in presence of vincristine at 50 nM by Annexin V-FITC/DAPI staining based flow cytometry analysis (reference value: 93.5 %); type: functional; conditions: read-out: Activity
[15] = tested on: Eca-109/VCR; assay: Induction of apoptosis in human Eca-109/VCR cells assessed as early apoptotic cells at 1 uM incubated for 48 hrs in presence of vincristine at 50 nM by Annexin V-FITC/DAPI staining based flow cytometry analysis (reference value: 1.33 %); type: functional
[16] = tested on: Eca-109/VCR; assay: Induction of apoptosis in human Eca-109/VCR cells assessed as late apoptotic cells at 1 uM incubated for 48 hrs in presence of vincristine at 50 nM by Annexin V-FITC/DAPI staining based flow cytometry analysis (reference value: 5.06 %); type: functional
[17] = tested on: Eca-109/VCR; assay: Induction of apoptosis in human Eca-109/VCR cells assessed as necrotic cells at 1 uM incubated for 48 hrs in presence of vincristine at 50 nM by Annexin V-FITC/DAPI staining based flow cytometry analysis (reference value: 0.062 %); type: functional
[18] = tested on: Eca-109/VCR; assay: Induction of apoptosis in human Eca-109/VCR cells assessed as viable cells at 5 uM incubated for 48 hrs in presence of vincristine at 50 nM by Annexin V-FITC/DAPI staining based flow cytometry analysis (reference value: 93.5 %); type: functional; conditions: read-out: Activity
[19] = tested on: Eca-109/VCR; assay: Induction of apoptosis in human Eca-109/VCR cells assessed as early apoptotic cells at 5 uM incubated for 48 hrs in presence of vincristine at 50 nM by Annexin V-FITC/DAPI staining based flow cytometry analysis (reference value: 1.33 %); type: functional
[20] = tested on: Eca-109/VCR; assay: Induction of apoptosis in human Eca-109/VCR cells assessed as late apoptotic cells at 5 uM incubated for 48 hrs in presence of vincristine at 50 nM by Annexin V-FITC/DAPI staining based flow cytometry analysis (reference value: 5.06 %); type: functional
[21] = tested on: Eca-109/VCR; assay: Induction of apoptosis in human Eca-109/VCR cells assessed as necrotic cells at 5 uM incubated for 48 hrs in presence of vincristine at 50 nM by Annexin V-FITC/DAPI staining based flow cytometry analysis (reference value: 0.062 %); type: functional
[22] = tested on: Eca-109/VCR; assay: Effect on ABCG2 protein expression in human Eca-109/VCR cells at 5 to 10 uM incubated for 24 hrs by Western blotting analysis; type: functional, cell-based; conditions: dose 5-10 µM
[23] = tested on: Eca-109/VCR; assay: Reversal of vincristine resistance in human Eca-109/VCR cells assessed as effect on P-gp protein expression at 5 to 10 uM incubated for 24 hrs by Western blotting analysis; type: functional, cell-based; conditions: dose 5-10 µM
[24] = tested on: Eca-109/VCR; assay: Effect on MRP1 protein expression in human Eca-109/VCR cells at 5 to 10 uM incubated for 24 hrs by Western blotting analysis; type: functional, cell-based; conditions: dose 5-10 µM
[25] = Reversal of vincristine resistant in human Eca-109/VCR cells assessed as reversal fold by measuring ratio of mitoxantrone IC50 to mitoxantrone IC50 in presence of test compound at 5 uM incubated for 48 hrs by CCK8 assay; type: functional
[26] = Reversal of vincristine resistant in human Eca-109/VCR cells assessed as reversal fold by measuring ratio of colchicine IC50 to colchicine IC50 in presence of test compound at 5 uM incubated for 48 hrs by CCK8 assay; type: functional
[27] = Reversal of vincristine resistant in human Eca-109/VCR cells assessed as reversal fold by measuring ratio of docetaxel IC50 to docetaxel IC50 in presence of test compound at 5 uM incubated for 48 hrs by CCK8 assay; type: functional
[28] = Reversal of vincristine resistant in human Eca-109/VCR cells assessed as reversal fold by measuring ratio of doxorubicin IC50 to doxorubicin IC50 in presence of test compound at 5 uM incubated for 48 hrs by CCK8 assay; type: functional
[29] = Reversal of vincristine resistant in human Eca-109/VCR cells assessed as reversal fold by measuring ratio of lapatinib IC50 to lapatinib IC50 in presence of test compound at 5 uM incubated for 48 hrs by CCK8 assay; type: functional
[30] = tested on: Eca-109/VCR; assay: Inhibition of colony formation in human Eca-109/VCR cells at 0 to 12 nM incubated for 48 hrs by crystal violet staining based assay; type: functional, cell-based; conditions: dose 0-12 nM

Structure (SMILES)	viability at 5 µM [1]	Ratio IC50 [2]	Activity [3]	viability at 5 µM [10]	Activity [11]	Activity [12]	Activity [13]	viability at 5 µM [18]	Activity [19]	Activity [20]	Activity [21]	also measured
CN1C(=O)[C@@]2(c3cc(Cl)ccc31)[C@H](c1ccccc1)[C@H]1C(=O)c3cc([N+](=O)[O-])ccc3[C@H]1[C@@H]2C(=O)NC(C)(C)C	96.7%	471.3	inactive	–	–	–	–	–	–	–	–	–
CN1C(=O)[C@@]2(c3cc(Cl)ccc31)[C@H](C(=O)NC(C)(C)C)[C@H]1c3ccc([N+](=O)[O-])cc3C(=O)[C@H]1[C@@H]2c1ccccc1	98.9%	727.2	inactive	94.6%	1.19%	4.19%	0.064%	77.5%	17.9%	4.28%	0.31%	inhibition [4]: inactive; inhibition [5]: Dose-Dependent Effect; viability at 1 µM [6]: 93.9%; Activity [7]: 1.27%; Activity [8]: 4.73%; Activity [9]: 0.082%; viability at 1 µM [14]: 91.3%; Activity [15]: 0.99%; Activity [16]: 7.54%; Activity [17]: 0.15%; Activity [22]: inactive; Activity [23]: inactive; Activity [24]: inactive; Ratio IC50 [25]: 12; Ratio IC50 [26]: 139.7; Ratio IC50 [27]: 313.8; Ratio IC50 [28]: 121; Ratio IC50 [29]: 1.4
COc1cc2c(cc1OC)CN(CCc1ccc(NC(=O)c3cc(OC)c(OC)cc3NC(=O)c3cnc4ccccc4c3)cc1)CC2 [TARIQUIDAR]	84.8%	364.3	–	92.3%	4.28%	3.35%	0.1%	79%	13.8%	6.59%	0.68%	–
COc1ccc(CCN(C)CCCC(C#N)(c2ccc(OC)c(OC)c2)C(C)C)cc1OC (stereo not drawn) [VERAPAMIL]	98.9%	107.9	–	94%	2.86%	3.05%	0.049%	83.6%	12.1%	3.93%	0.32%	–
CC[C@]1(O)C[C@H]2CN(CCc3c([nH]c4ccccc34)[C@@](C(=O)OC)(c3cc4c(cc3OC)N(C=O)[C@H]3[C@@](O)(C(=O)OC)[C@H](OC(C)=O)[C@]5(CC)C=CCN6CC[C@]43[C@@H]65)C2)C1	–	–	–	–	–	–	–	–	–	–	–	inhibition [30]: inactive
